IC50 data for eight compounds are collected here from patent US5488149A, “Substituted amic acid derivatives” (Banyu Pharmaceutical Co., Ltd., priority 1993, dated 1996).

The structures appear in SMILES notation. pIC50: −log10 of the molar value.

The test has as its target T1, squalene synthase (Homo sapiens, UniProt P37268).
T1 construct: A microsome fraction was prepared from human-hepatoma(Hep G2) cells; endogenous in cells; host or cells: Hep G2 (human hepatoma) cells, washed microsome fraction
T1 sequence (P37268 1-417): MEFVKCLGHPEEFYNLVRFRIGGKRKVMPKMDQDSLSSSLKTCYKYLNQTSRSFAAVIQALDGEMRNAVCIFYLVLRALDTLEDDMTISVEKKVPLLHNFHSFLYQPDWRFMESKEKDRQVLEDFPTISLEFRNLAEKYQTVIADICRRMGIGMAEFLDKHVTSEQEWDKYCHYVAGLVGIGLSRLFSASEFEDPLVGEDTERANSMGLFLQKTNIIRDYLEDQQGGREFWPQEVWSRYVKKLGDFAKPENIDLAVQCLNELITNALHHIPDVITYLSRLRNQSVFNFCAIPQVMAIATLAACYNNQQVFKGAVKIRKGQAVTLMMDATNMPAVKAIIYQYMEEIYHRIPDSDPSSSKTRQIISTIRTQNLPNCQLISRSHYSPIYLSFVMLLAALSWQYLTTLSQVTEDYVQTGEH
The test can be described thus: Inhibitory activities against squalene synthase. The settings on record: microsome fraction from human hepatoma (Hep G2) cells; 10 μM [3H]-farnesyl pyrophosphate; pH 7.4; 37° C., 20 minutes; read-out: 50% inhibitory concentration against squalene synthase activity (IC50). It is filed as biochemical. As to the method: Inhibitory activities against squalene synthase (1) Preparation of a microsome fraction A microsome fraction was prepared from human-hepatoma(Hep G2) cells by the method of Shechter et al disclosed in J. Biol. Chem., 267, 8628 (1992). Namely, Hep G2 cells were homogenized in the presence of a 0.3M sucrose-1 mM DTT-1 mM EDTA-10 mM Hepes buffer solution (pH 7.4) and various protease inhibitors, and subjected to centrifugal separation at 2000×g for 5 minutes and 10000×g for 15 minutes. The obtained supernatant was further subjected to centrifugal separation at 105000×g for 60 minutes, whereupon the precipitated residue was obtained. This precipitated residue was suspended in the above buffer solution containing various protease inhibitors, and the suspension was further subjected to centrifugal separation at 105000×g for 30 minutes to wash the precipitated residue. This washing operation was repeated three times. The finally obtained precipitated residue was taken as a microsome fraction, which was suspended in the above buffer solution containing no such various protease inhibitors, and the suspension was used for measuring the enzyme activities. (2) Method for measuring squalene synthase activities The enzymatic reaction of the squalene synthase was conducted in accordance with the method of Shechter et al disclosed in J. Biol. Chem., 267, 8628 (1992). […] Biochem., 203, 310 (1992). […] 50% inhibitory concentration against squalene synthase activity

As for `C[C@@H](NC(=O)CC(CC(=O)O)C(=O)O)[C@H](Cc1ccc2ccccc2c1)c1ccc(-c2ccccc2)cc1` (relative stereo) [Example 32, N-{(1RS, 2RS)-2-(4-Biphenylyl)-1-methyl-3-(2-naphthyl)propyl}carbamoylmethylsuccinic acid], the pIC50 was 8.33.
On to `C[C@@H]([C@@H](Cc1ccc(Cl)c(Cl)c1)c1ccc(-c2ccccc2)cc1)N(C)C(=O)C[C@@H](CC(=O)O)C(=O)O` [Example 49, (2S)-2-[N-{(1S, 2S)-2-(4-Biphenylyl)-3-(3, 4dichlorophenyl) -1-methylpropyl}-N-methylcarbamoylmethyl]succinic acid], for which the pIC50 is 8.52.
The result for `C[C@H](NC(=O)C[C@@H](CC(=O)O)C(=O)O)[C@@H](Cc1ccc(Cl)c(Cl)c1)OC(=O)c1ccc2ccccc2c1` [Example 92, (2S)-2-[N-{(1S, 2R)-3-(3,4-dichlorophenyl)-1-methyl-2-(2-naphthoyloxy)propyl}carbamoylmethyl]succinic acid] reads 9.30.
As for `C[C@@H](NC(=O)CC(CC(=O)O)C(=O)O)[C@H](Cc1ccc(Cl)cc1)c1ccc(-c2ccccc2)c(F)c1` (relative stereo) [Example 35, N-{(1RS, 2RS)-3-(4-Chlorophenyl)-2-(2-fluoro-4-biphenylyl)-1-methylpropyl}carbamoylmethylsuccinic acid], the pIC50 is 8.27.
In the case of `C[C@H](NC(=O)C[C@H](CC(=O)O)C(=O)O)[C@@H](Cc1ccc(Cl)cc1)c1ccc(-c2ccccc2)cc1` [Example 46 (2R-form), (2R)-2-[N-{(1S, 2S)-2-(4-biphenylyl)-3-(4-chlorophenyl)-1-methylpropyl} -carbamoylmethyl]succinic acid], the pIC50 is 8.49.
Regarding `C[C@H](NC(=O)CC/C=C/C(=O)O)[C@@H](Cc1ccc(Cl)c(Cl)c1)c1ccc(-c2ccccc2)c(F)c1` [Example 70, (E)-5-[N-{(1S, 2S)-3-(3,4-Dichlorophenyl)-2-(2-fluoro-4-biphenylyl)-1-methylpropyl}carbamoyl]-2-pentenoic acid], the pIC50 is 8.85.
For the compound `C[C@@H](NC(=O)CC(CC(=O)O)C(=O)O)[C@@H](/C=C/c1ccc2ccccc2c1)Cc1ccc(Cl)c(Cl)c1` (relative stereo) [Example 102, N-((1RS, 2RS, 3E)-2-(3,4-dichlorobenzyl)-1-methyl-4-(2-naphthyl)-3-butenyl)carbamoylmethylsuccinic acid], the pIC50 was 8.77.
As for `CC(CC(=O)O)CC(=O)N[C@H](C)[C@@H](/C=C/c1ccc2ccccc2c1)Cc1ccc(Cl)c(Cl)c1` (relative stereo) [Example 112, 4-{(1RS, 2RS, 3E)-2-(3,4-dichlorobenzyl)-1-1-methyl-4-(2-naphthyl)-3-butenylcarbamoyl}-3-methylbutanoic acid], the pIC50 is 8.51.
